{
  "source": "patent US20240287139A1",
  "about": "“A NOVEL COMPOUND ACTING AGAINST A SELECT GROUP OF BACTERIA” (priority 2021, published 2024)",
  "key": {"[1]": {"system": "M. tuberculosis GyrA D94N mutant", "format": "cell-based"}, "[2]": {"system": "M. tuberculosis H37Rv mc^26020"}, "[3]": {"system": "MtbGyrase GyrA mutants", "format": "biochemical, M. tuberculosis"}, "[4]": {"system": "M. tuberculosis bacA mutants (L469P, L470P and S577R; bacA deletion mutant)", "format": "cell-based"}},
  "note": "Where “and” joins values, the source holds several entries; their conditions need not be identical. Equal values may be shown once. *1 amine or outer side, *2 acyl side, *3 side chain or, on linkers, in order; H or OH if unused. Where a SMILES comes first, the peptide text is derived from it. Bridges are numbered along the chain shown (N, C = ends). [ ]: non-standard residue; d: D form. The star is where a group is joined. ξ: configuration not given here. ξThr(3R)(O-yl) = C[C@@H](O[*:3])C(N[*:1])C(=O)[*:2]; βAsp = O=C(O)[C@H](CC(=O)[*:2])N[*:1]; His(π-Me) = Cn1cncc1C[C@H](N)C(=O)O; For = O=C*",
  "data": [
    {"smiles": "C[C@H]1OC(=O)C[C@@H](C(=O)O)NC(=O)[C@H](CO)NC(=O)[C@@H](CCCNC(=N)N)NC(=O)CNC(=O)[C@H](Cc2ccccc2)NC(=O)[C@@H](CO)NC(=O)C[C@@H](C(=O)O)NC(=O)[C@H](Cc2cncn2C)NC(=O)C1NC(=O)[C@@H](CCCNC(=N)N)NC(=O)[C@@H](NC(=O)[C@H](Cc1c[nH]c2ccccc12)NC=O)[C@@H](C)O", "note": "(stereo partly drawn) [compound of Formula IV] (For-WT[dR][ξThr(3R)(O-yl)][His(π-Me)][βAsp][dS]FG[dR]SD-OH; ester 4-12)", "values": [
      {"measurement": "MIC", "setting": "[1]", "result": 0.25, "unit": "µg/mL"},
      {"measurement": "frequency of highly resistant mutants", "setting": "[2]", "result": "6.1×10^−9 to 1.7×10^−8"},
      {"measurement": "frequency of resistant mutants", "setting": "[2]", "result": "7.2×10^−6 to 1.6×10^−5"},
      {"measurement": "drug-induced cleavage with MtbGyrAP353L and MtbGyrAA32V", "setting": "[3]", "result": "relatively strong resistance"},
      {"measurement": "reduced cleavage compared to wildtype MtbGyrase", "setting": "[3]", "result": "5 to 100", "unit": "fold"},
      {"measurement": "MIC against bacA mutants", "setting": "[4]", "result": "8 to 16 µg/mL and 8 µg/mL"},
      {"measurement": "MIC against bacA mutants as multiple of wild-type MIC", "setting": "[4]", "result": "32-64 ×MIC and 32 ×MIC"}
    ]}
  ]
}
